Laboratory results published in PubChem BioAssay AID977607 (Broad Institute, 2014).
Where “and” joins values, the source holds several entries; their conditions need not be identical. Equal values may be shown once. Calls of active or inactive are those of the source.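 The calls were made as follows: active = curve reaches 40% activation over neutral controls at an AC40 no higher than the top valid tested concentration; inconclusive = no clear call, values can overlap the other calls; inactive = signal moving opposite to the expected increase, and the rest.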

System: INS-1E GLuc insulin secretion reporter, luminescence, 2-3 h
Test: activators of glucose-dependent insulin secretion, dose response, cell-based, INS-1E, Gaussia luciferase, luminescence, cherry-pick, set 2 (AID 977607)

CC1(C(=O)NS(=O)(=O)c2ccc(C#N)cc2)CCN1C(=O)C1(c2ccccc2)CCCC1 (configuration not stated)
AC40: > 35 µM (inactive)

COc1cc2c(cc1OC)-c1cc(N3CCc4ccccc43)nc(=O)n1CC2
AC40: 15.6 µM

Cc1ccc(-c2ccc(C3[C@@H]4CN(C(=O)Nc5ccc(C(F)(F)F)cc5)C[C@H]3N4)cc2)cc1 (some centres not stated)
AC40: 4.06 µM and 2.82 µM

COc1ccc(C2=NN(C(=O)CCCC(=O)O)C(c3cccs3)C2)cc1OC (configuration not stated)
AC40: 11.6 µM

CCCCc1c(-c2ccccc2OC)ncn1C(C)c1ccc(Cl)cc1 (configuration not stated)
AC40: 12.6 µM

Cc1cc(C)nc(Nc2n[nH]c(COc3ccc4ccccc4c3)n2)n1
AC40: 7.71 µM

O=C1N/C(=N\N=C\c2cccs2)SC1Cc1cccc(Cl)c1 (configuration not stated)
AC40: 9.04 µM

CCCCc1c(Cc2cccc(F)c2)ncn1CCc1ccccc1OC
AC40: 12.3 µM

Cc1cccc(-c2ccc(C3[C@@H]4CN(C(=O)C5CCCCC5)C[C@H]3N4)cc2)c1 (some centres not stated)
AC40: 18.5 µM

O=c1c2cc(F)ccc2sn1-c1ccccc1Cl
AC40: 1.85 µM

COC(=O)C1=C(C)N(Cc2cccc(C(F)(F)F)c2)C(=NCc2ccc(OC)cc2)NC1c1cccc(Cl)c1 (configuration not stated)
AC40: 9.96 µM

CC(=O)C1=C(S(=O)(=O)c2ccc(C)cc2)CS(=O)(=O)C1
AC40: 1.23 µM

CCOC(=O)c1ccccc1NC(=O)c1n[nH]c(=O)c2ccccc12
AC40: 5.47 µM

COc1ccc(CCN(C)C(=O)COc2cccc(-n3cnnn3)c2)cc1OC
AC40: > 35 µM (inactive)

COc1cc(/C=N/NC(=O)Nc2ccccc2)ccc1OCCOc1ccccc1C
AC40: 2.29 µM

CC(NCC(O)COCCC12CC3CC(CC(C3)C1)C2)c1ccccc1 (configuration not stated)
AC40: 14.9 µM

O=C(CCN1CCOCC1)c1ccccc1
AC40: 7.71 µM

Cc1cc(C)c2oc(C(=O)Nc3ccc(S(=O)(=O)Nc4nccc(C)n4)cc3)cc(=O)c2c1
AC40: 8.73 µM

Fc1ccc(-c2ccc(C3[C@@H]4CN(Cc5ccccc5)C[C@H]3N4)cc2)cc1 (some centres not stated)
AC40: 6.57 µM

CCOc1ccc(-c2nnn(CC(=O)Nc3ccccc3OC)n2)cc1OCC
AC40: 2.04 µM

CC(C)(c1ccccc1)c1ccc(OCC(O)CNC2CCN(Cc3ccccc3)CC2)cc1 (configuration not stated)
AC40: 11.8 µM

CCCNC(=O)Cn1sc2nc(C)cc(C)c2c1=O
AC40: 6.91 µM

CC1(C(=O)NS(=O)(=O)c2ccccc2Cl)CCN1C(=O)C1(c2ccccc2)CCCC1 (configuration not stated)
AC40: 19.3 µM

CC(=O)N(C1CC(C)C(C#N)(C#N)C1(C#N)C#N)N(C)C (configuration not stated)
AC40: 1.85 µM

Cc1cccc(-c2ccc(C3[C@@H]4CN(C(=O)Nc5ccc(C(F)(F)F)cc5)C[C@H]3N4)cc2)c1 (some centres not stated)
AC40: 1.09 µM

CCN(Cc1ccccc1)S(=O)(=O)c1ccc(C(=O)N(CCCN(C)C)c2nc3cc(C)cc(C)c3s2)cc1
AC40: 17.4 µM

CCOC(=O)c1csc(-c2ccc(OC)c(OC)c2)n1
AC40: 2.17 µM

FC(F)(F)c1cc(CCN2CCNC[C@@H]2Cc2ccccc2)cc(C(F)(F)F)c1
AC40: 17.8 µM

COc1ccc(CCNC(=O)NS(=O)(=O)c2ccc(C)cc2)cc1OC
AC40: > 35 µM (inactive)

CCOc1ccc(CN2C(=O)c3ccccc3C2=O)cc1C(=O)Nc1nnc(SCC)s1
AC40: 13.6 µM

COc1ccc(C(=O)N=C2CCC(C#N)=C3c4cc(OC)c(OC)cc4CCN23)cc1
AC40: 0.483 µM

CN1CCN(C2Cc3ccccc3Sc3cc(C(F)(F)F)ccc32)CC1 (configuration not stated)
AC40: 16 µM

COc1ccc2nc3ccccc3nc2c1NC(=O)c1ccc(Cl)cc1Cl
AC40: 6.29 µM

CC(C)Nc1nc(NC(C)(C)C)nc(Oc2ccc(=O)n(C)n2)n1
AC40: 29.2 µM

COc1ccc(NC(=O)Cn2cnc3c(cnn3-c3ccc(C)c(C)c3)c2=O)c(OC)c1
AC40: 5.6 µM

C=CCn1c(=NC(=O)c2cc(Cl)sc2Cl)sc2cc(S(N)(=O)=O)ccc21
AC40: 5.55 µM

Cc1ccccc1-n1sc2cc(F)ccc2c1=O
AC40: 1.56 µM

O=C(N/N=C/c1ccco1)c1cc(-c2ccc3ccccc3c2)n[nH]1
AC40: 4.19 µM

COc1ccc(-c2ccc(-c3noc(-c4ccco4)n3)c(OC)n2)cc1
AC40: 7.71 µM

Cc1cc(C)nc(NS(=O)(=O)c2ccc(N/C=C/C(=O)c3ccc(Cl)c(Cl)c3)cc2)n1
AC40: 3.7 µM

CCOC(=O)Cc1nn(Cc2ccccc2)c(=O)c2ccccc12
AC40: 1.61 µM

Cc1nn(Cc2ccc(Cl)cc2Cl)c(Cl)c1C(=O)Nc1ccc(OC(F)F)cc1
AC40: 6.5 µM

Cc1ccc(-c2nnc3sc(-c4ccncc4)nn23)cc1
AC40: 13.5 µM

Fc1cccc(CN2C[C@@H]3N[C@H](C2)C3c2ccc(/C=C/c3ccccc3)cc2)c1 (some centres not stated)
AC40: 11.4 µM

COc1cc2c(cc1OC)C1=C(C#N)CCC(=NC(=O)c3ccco3)N1CC2
AC40: 7.7 µM

COc1ccc(OC)c(NC(=O)c2cc3c(Cl)nc4ccccc4c3s2)c1
AC40: 10.2 µM

Cc1cc(C)cc(NC(=O)Cc2ccc(-n3cccc3)cc2)c1
AC40: 8.29 µM

CNc1nc(Sc2ccccc2)cc(C(F)(F)F)n1
AC40: > 35 µM (inactive)

Fc1ccc(-c2cc(C(F)(F)F)nc(-n3cncn3)n2)cc1
AC40: 0.52 µM

NS(=O)(=O)c1ccc(CCNc2nc3c(-c4cccc(F)c4)nnn3c3ccccc23)cc1
AC40: 15.9 µM

Cc1cc(C)c2nc(N(CCCN(C)C)C(=O)c3ccc4c(c3)CCCC4)sc2c1
AC40: 6.21 µM

COc1ccc(/C=N/NC(=O)CCOc2ccccc2C)cc1OC
AC40: 7.01 µM

CCCCCc1cc(=O)oc2c(C(CCN3CCCC(C)C3)c3ccc(OC)cc3)c(OC)cc(OC)c12 (configuration not stated)
AC40: 12 µM

CCOc1ccc2nc(NCCNC(=O)Nc3ccccc3)c(C#N)cc2c1
AC40: 5.63 µM

COc1ccc(C)c2sc(N(CCCN(C)C)C(=O)c3ccc(S(=O)(=O)N4CCc5ccccc5C4)cc3)nc12
AC40: 3.95 µM

Cc1ccccc1NC(=O)c1ccc(OCc2c(C)noc2C)cc1
AC40: > 35 µM (inactive)

COC(=O)C1=C(C)N(C)C(=NCc2cccc(C(F)(F)F)c2)NC1c1ccc(C(F)(F)F)cc1 (configuration not stated)
AC40: 18.1 µM

O=C(Nc1cccc(Cl)c1)Nc1nnc(CSCCOc2ccc(Cl)cc2)s1
AC40: 5.57 µM

COc1ccc(C2=Nn3c(nnc3-c3ccccc3F)SC2)cc1OCC1CC1
AC40: 1.23 µM

CCOC(=O)Cn1c(=NC(=O)c2nc3ccccc3s2)sc2cc(S(N)(=O)=O)ccc21
AC40: 11.4 µM

Cc1ccc(-n2sc3cc(F)ccc3c2=O)c(C)c1
AC40: 1.94 µM

COc1ccc(C2CNC(=O)C2)cc1OC1CCCC1 (configuration not stated)
AC40: 1.98 µM

COc1ccc(C(=O)Nc2ccc3c(c2)C(=O)c2ccccc2C3=O)cc1OC
AC40: 24.1 µM

COc1cc(CN2CCc3ccccc3C2)ccc1O
AC40: 6.75 µM

N#Cc1cccc(-c2ccc([C@@H]3[C@@H]4CN(S(=O)(=O)c5ccc(-c6ccccc6)cc5)C[C@H]3N4)cc2)c1
AC40: 3.49 µM

O=C(Nc1nc2ccccc2n1Cc1ccc(Cl)cc1)c1ccco1
AC40: 7.18 µM

CONc1nc(NC(C)(C)C)nc(OCC#N)n1
AC40: > 35 µM (inactive)

FC(F)(F)c1cc(CCN2CCNC[C@H]2Cc2cccc3ccccc23)cc(C(F)(F)F)c1
AC40: 7.24 µM

Fc1ccccc1/C=N/n1c(C2CCCCC2)n[nH]c1=S
AC40: 18.5 µM

COC(=O)C1=C(C)N(Cc2cccc(C(F)(F)F)c2)C(=NCc2ccccc2)NC1c1ccc(Cl)cc1 (configuration not stated)
AC40: 11.6 µM

CC(C)(C(=O)N1CCC1(C)C(=O)NS(=O)(=O)c1ccc(Br)cc1)c1ccccc1 (configuration not stated)
AC40: 12.7 µM

O=c1c2ccc(Cl)cc2[nH]c(=S)n1CCC1=CCCCC1
AC40: 3.37 µM

COc1ccc(C2=NN(C(=O)c3ccco3)C(c3cccs3)C2)cc1OC (configuration not stated)
AC40: 1.94 µM

CCC(C)Sc1cccc(-c2nc3cnccn3c2NC2CCCCC2)c1 (configuration not stated)
AC40: 5.37 µM

COC(=O)C1=C(C)N(Cc2cccc(C(F)(F)F)c2)C(=NCc2ccc3c(c2)OCO3)NC1CCc1ccccc1 (configuration not stated)
AC40: 13.1 µM

Cc1ccc(C)c(C(=O)Nc2nc3ccccc3[nH]2)c1
AC40: 8.78 µM

COc1ccccc1C(=O)NC(=S)NC12CC3CC(CC(C3)C1)C2
AC40: 7.9 µM
